US20130143881A1, “Hydrated Crystalline Forms of N-[3-fluoro-4-(oxy)phenyl]-N'-(4-fluorophenyl)cyclopropane-1,1-dicarboxamide” (Exelixis, Inc., priority 2010, published 2013)

Assay: Gravimetric vapor sorption (GVS) study
Format: physicochemical
Details: 25° C. and 90 percent humidity
Procedure: A gravimetric vapor sorption (GVS) study was run using a standard procedure. Samples were run on a dynamic vapor sorption analyzer (Surface Measurement Systems) running DVSCFR software. Sample sizes were typically 10 mg. A moisture adsorption desorption isotherm was performed as outlined below. The standard isotherm experiment, performed at 25° C., is a two-cycle run, starting at 40 percent RH, increasing humidity to 90 percent RH, decreasing humidity to 0 percent RH, increasing humidity again to 90 percent RH, and finally decreasing humidity to 0 percent RH in 10 percent RH intervals.

weight gain (GVS moisture sorption): 2.5%
SMILES: COc1cc2c(Oc3ccc(NC(=O)C4(C(=O)Nc5ccc(F)cc5)CC4)cc3F)ccnc2cc1OCCCN1CCOCC1 [crystalline Compound (I), N-[3-fluoro-4-({6-(methyloxy)-7-[(3-morpholin-4-ylpropyl)oxy]quinolin-4-yl}oxy)phenyl]-N′-(4-fluorophenyl)cyclopropane-1,1-dicarboxamide crystalline hydrate]
